In ChEMBL document CHEMBL6103586, “Optimization of pyrazole/1,2,4-triazole as dual EGFR/COX-2 inhibitors: Design, synthesis, anticancer potential, apoptosis induction and cell cycle analysis” (Eur J Med Chem, 2025):

Experiments:
[1] = system: MCF7; assay: Cytotoxicity against human MCF7 cells assessed as cell growth inhibition measured after 24 hrs by spectrophotometry based MTT assay; assay type: functional; conditions: MCF7, 24 h
[2] = system: HT-29; assay: Cytotoxicity against human HT-29 cells assessed as cell growth inhibition measured after 24 hrs by spectrophotometry based MTT assay; assay type: functional; conditions: HT-29, 24 h
[3] = system: A549; assay: Cytotoxicity against human A549 cells assessed as cell growth inhibition measured after 24 hrs by spectrophotometry based MTT assay; assay type: functional; conditions: A549, 24 h
[4] = target: Prostaglandin G/H synthase 1 (Homo sapiens, UniProt P23219)
Description: Inhibition of COX-1 (unknown origin) using arachidonic acid as substrate by fluorescence based analysis

[5] = target: Epidermal growth factor receptor (Homo sapiens, UniProt P00533); assay: Inhibition of human wild-type EGFR by Kinase-Glo assay
[6] = target: Epidermal growth factor receptor (Homo sapiens, UniProt P00533, T790M); assay: Inhibition of human EGFR T790M mutant by Kinase-Glo assay
[7] = system: MCF7; assay: Induction of cell cycle arrest in human MCF-7 cells assessed as accumulation of cells at G0/G1 phase cells at 1.207 uM incubated for 24 hrs by propidium iodide based flow cytometry analysis (reference value: 66.25%); assay type: functional
[8] = system: MCF7; assay: Induction of cell cycle arrest in human MCF-7 cells assessed as accumulation of cells at S phase cells at 1.207 uM incubated for 24 hrs by propidium iodide based flow cytometry analysis (reference value: 23.88%); assay type: functional
[9] = system: MCF7; assay: Induction of cell cycle arrest in human MCF-7 cells assessed as accumulation of cells at G2/M phase cells at 1.207 uM incubated for 24 hrs by propidium iodide based flow cytometry analysis (reference value: 9.87%); assay type: functional
[10] = system: MCF7; assay: Induction of apoptosis in human MCF7 cells assessed as early apoptotic cells at 1.207 uM incubated for 24 hrs by Annexin V-FITC/PI staining based flow cytometry analysis (reference value: 0.36%); assay type: functional
[11] = system: MCF7; assay: Induction of apoptosis in human MCF7 cells assessed as late apoptotic cells at 1.207 uM incubated for 24 hrs by Annexin V-FITC/PI staining based flow cytometry analysis (reference value: 0.11%); assay type: functional
[12] = system: MCF7; assay: Induction of apoptosis in human MCF7 cells assessed as necrotic cells at 1.207 uM incubated for 24 hrs by Annexin V-FITC/PI staining based flow cytometry analysis (reference value: 2.04%); assay type: functional
[13] = system: MCF7; assay: Induction of apoptosis in human MCF7 cells assessed as total apoptotic cells at 1.207 uM incubated for 24 hrs by Annexin V-FITC/PI staining based flow cytometry analysis (reference value: 2.51%); assay type: functional

Chain of Epidermal growth factor receptor (Homo sapiens, UniProt P00533, T790M) (P00533 25-1210 T790M limits assumed): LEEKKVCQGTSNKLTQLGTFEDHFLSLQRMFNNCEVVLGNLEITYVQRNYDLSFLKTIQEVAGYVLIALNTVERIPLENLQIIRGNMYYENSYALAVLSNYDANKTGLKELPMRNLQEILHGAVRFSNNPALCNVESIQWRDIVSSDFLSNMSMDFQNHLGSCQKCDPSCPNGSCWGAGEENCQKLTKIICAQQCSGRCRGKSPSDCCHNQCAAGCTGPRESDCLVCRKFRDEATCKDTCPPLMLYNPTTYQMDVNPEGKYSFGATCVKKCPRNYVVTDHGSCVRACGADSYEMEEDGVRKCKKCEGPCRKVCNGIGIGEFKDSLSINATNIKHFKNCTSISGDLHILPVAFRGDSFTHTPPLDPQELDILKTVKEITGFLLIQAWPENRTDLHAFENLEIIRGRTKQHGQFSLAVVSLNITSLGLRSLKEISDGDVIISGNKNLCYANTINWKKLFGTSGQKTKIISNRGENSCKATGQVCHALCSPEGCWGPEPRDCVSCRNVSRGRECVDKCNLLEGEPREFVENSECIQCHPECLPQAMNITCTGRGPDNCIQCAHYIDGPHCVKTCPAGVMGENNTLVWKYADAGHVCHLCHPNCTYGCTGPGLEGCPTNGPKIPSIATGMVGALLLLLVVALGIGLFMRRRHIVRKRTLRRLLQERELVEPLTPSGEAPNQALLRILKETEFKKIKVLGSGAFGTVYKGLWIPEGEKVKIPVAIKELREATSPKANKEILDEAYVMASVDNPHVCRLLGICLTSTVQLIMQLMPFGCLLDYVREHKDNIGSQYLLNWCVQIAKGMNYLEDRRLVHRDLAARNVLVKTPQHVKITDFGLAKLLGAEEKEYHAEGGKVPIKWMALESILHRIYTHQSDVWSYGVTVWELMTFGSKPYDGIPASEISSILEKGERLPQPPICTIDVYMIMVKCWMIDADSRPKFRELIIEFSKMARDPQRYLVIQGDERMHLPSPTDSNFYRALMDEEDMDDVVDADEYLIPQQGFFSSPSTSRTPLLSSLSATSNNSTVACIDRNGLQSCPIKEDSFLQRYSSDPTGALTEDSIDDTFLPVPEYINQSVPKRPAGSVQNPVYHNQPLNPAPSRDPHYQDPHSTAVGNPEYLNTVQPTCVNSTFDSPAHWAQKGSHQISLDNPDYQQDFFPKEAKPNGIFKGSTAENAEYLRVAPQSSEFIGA
Chain of Epidermal growth factor receptor (Homo sapiens, UniProt P00533) (P00533 whole entry): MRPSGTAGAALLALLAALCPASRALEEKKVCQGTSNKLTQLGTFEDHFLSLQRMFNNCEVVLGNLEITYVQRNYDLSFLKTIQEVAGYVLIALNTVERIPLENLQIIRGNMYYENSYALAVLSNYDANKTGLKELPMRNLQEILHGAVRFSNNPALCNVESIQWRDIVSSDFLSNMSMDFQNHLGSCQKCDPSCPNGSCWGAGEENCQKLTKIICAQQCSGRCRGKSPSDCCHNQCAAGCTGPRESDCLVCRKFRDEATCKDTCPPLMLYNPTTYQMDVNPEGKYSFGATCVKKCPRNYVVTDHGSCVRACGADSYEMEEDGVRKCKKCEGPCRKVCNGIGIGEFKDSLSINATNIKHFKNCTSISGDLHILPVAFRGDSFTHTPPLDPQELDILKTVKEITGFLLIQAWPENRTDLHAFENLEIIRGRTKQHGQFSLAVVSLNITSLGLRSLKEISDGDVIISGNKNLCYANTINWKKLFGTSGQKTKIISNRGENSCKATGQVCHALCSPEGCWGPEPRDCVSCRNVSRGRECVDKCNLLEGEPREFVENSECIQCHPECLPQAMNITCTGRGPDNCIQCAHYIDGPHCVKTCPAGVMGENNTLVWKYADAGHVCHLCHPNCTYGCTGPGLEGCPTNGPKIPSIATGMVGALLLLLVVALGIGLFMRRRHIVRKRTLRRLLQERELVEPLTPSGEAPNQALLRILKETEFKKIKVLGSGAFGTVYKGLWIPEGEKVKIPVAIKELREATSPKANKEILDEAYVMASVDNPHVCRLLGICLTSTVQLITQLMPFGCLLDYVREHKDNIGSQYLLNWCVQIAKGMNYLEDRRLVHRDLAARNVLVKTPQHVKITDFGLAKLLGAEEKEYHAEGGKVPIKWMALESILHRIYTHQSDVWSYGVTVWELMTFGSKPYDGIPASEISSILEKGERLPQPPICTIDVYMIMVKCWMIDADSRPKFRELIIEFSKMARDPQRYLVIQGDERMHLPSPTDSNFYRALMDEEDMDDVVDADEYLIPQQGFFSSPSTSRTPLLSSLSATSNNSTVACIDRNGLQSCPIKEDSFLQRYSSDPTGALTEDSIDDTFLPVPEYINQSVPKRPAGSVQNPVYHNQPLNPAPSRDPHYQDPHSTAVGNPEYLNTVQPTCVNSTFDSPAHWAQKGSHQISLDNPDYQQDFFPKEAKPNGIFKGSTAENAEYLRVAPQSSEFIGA
Chain of Prostaglandin G/H synthase 1 (P23219 whole entry): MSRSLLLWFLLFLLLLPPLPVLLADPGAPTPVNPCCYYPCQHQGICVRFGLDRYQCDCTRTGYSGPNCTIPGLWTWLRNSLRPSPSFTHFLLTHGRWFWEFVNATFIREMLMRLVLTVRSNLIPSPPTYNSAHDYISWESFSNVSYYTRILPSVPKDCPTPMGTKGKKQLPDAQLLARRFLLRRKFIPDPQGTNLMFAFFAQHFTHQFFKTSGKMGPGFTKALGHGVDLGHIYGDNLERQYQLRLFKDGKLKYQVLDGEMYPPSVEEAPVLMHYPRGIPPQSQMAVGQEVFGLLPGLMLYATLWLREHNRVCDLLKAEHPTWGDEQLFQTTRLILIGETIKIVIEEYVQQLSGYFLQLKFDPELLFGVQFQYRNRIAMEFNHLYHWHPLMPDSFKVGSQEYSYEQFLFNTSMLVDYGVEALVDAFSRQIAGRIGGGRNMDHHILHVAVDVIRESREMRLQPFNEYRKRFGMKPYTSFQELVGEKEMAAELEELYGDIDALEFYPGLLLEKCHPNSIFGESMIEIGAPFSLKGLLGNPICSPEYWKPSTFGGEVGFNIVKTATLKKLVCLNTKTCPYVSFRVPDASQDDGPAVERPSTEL

Compound	IC50 [1] [µM]	IC50 [2] [µM]	IC50 [3] [µM]	also measured
COc1ccc(C=Nn2c(S)nnc2-c2cnn(-c3ccccc3)c2C)cc1OC	20.2	13.1	18.6	–
Cc1c(-c2nnc(S)n2N=Cc2ccc(F)cc2)cnn1-c1ccc(S(C)(=O)=O)cc1	1.2	5.14	14.8	IC50 [4]: 20.1 µM; IC50 [5]: 121 nM; IC50 [6]: 76 nM; Activity [7]: 47.64%; Activity [8]: 13.21%; Activity [9]: 39.15%; Activity [10]: 22.81%; Activity [11]: 9.57%; Activity [12]: 6.29%; Activity [13]: 38.67%
COc1cc(C=Nn2c(S)nnc2-c2cnn(-c3ccc(S(C)(=O)=O)cc3)c2C)cc(OC)c1OC	48.5	51.5	35.9	–
COc1cc(C=Nn2c(S)nnc2-c2cnn(-c3ccccc3)c2C)cc(OC)c1OC	33.2	22.5	17.2	–
COc1cccc(C=Nn2c(S)nnc2-c2cnn(-c3ccccc3)c2C)c1OC	41.6	73.7	14.8	–
Cc1c(-c2nnc(S)n2N=Cc2ccc([N+](=O)[O-])cc2)cnn1-c1ccc(S(C)(=O)=O)cc1	4.95	13	4.89	–
Cc1c(-c2nnc(S)n2N=Cc2ccc(N(C)C)cc2)cnn1-c1ccc(S(C)(=O)=O)cc1	10.5	13.9	31.8	–
Cc1c(-c2nnc(S)n2N=Cc2ccc([N+](=O)[O-])cc2)cnn1-c1ccccc1	12.8	10.6	6.38	–
COc1cccc(C=Nn2c(S)nnc2-c2cnn(-c3ccc(S(C)(=O)=O)cc3)c2C)c1OC	22	28.1	13.5	–
Cc1c(-c2nnc(S)n2N=Cc2ccc(N(C)C)cc2)cnn1-c1ccccc1	7.46	2.93	3.78	IC50 [4]: 36 µM; IC50 [5]: 423 nM; IC50 [6]: 764 nM
COc1ccc(C=Nn2c(S)nnc2-c2cnn(-c3ccc(S(C)(=O)=O)cc3)c2C)cc1OC	5.14	9.23	2.38	IC50 [4]: 14.5 µM; IC50 [5]: 216 nM; IC50 [6]: 135 nM
Cc1c(-c2nnc(S)n2N=Cc2ccc(F)cc2)cnn1-c1ccccc1	16.9	12	7.27	–
Cc1ccc(-c2cc(C(F)(F)F)nn2-c2ccc(S(N)(=O)=O)cc2)cc1 [CELECOXIB]	16.5	41.5	21.7	–
C=CC(=O)Nc1cc(Nc2nccc(-c3cn(C)c4ccccc34)n2)c(OC)cc1N(C)CCN(C)C [OSIMERTINIB]	3.45	0.75	1.66	–
